Laboratory results from US9795644B2, “Reduction of in vitro genotoxicity of pollen extracts by removal of flavonoids” (STALLERGENES, priority 2009, dated 2017).

Legend:
[1] = incubation at 37° C. under MLA/TK conditions, deglycosylation followed by reverse phase HPLC; format: physicochemical; details: 24 h at 37° C., in presence of grass pollen proteins; from peak areas
Protocol: Grass pollen flavonoids were first identified by reverse phase HPLC, according to their hydrophobicity. Reverse phase HPLC was performed on a Atlantis dC18 column, 4.6×250 mm, 5 μm, Waters, Milford, Mass., USA; with a gradient elution: 0.1% formic acid qsp water to 0.1% formic acid qsp acetonitrile in 30 min; flow rate: 1 mL/min; run time: 45 min; detection wavelength: 354 or 254 nm; injection volume 50 μL. Importantly, grass pollen extracts were diluted 5 times in methanol before analysis in order to solubilize both flavonoid glycosides and flavonoid aglycones, the latter being hardly soluble in water.
Analysis of samples was performed using the HPLC method described above for the detection of flavonoids.
As (a) the sum of all peaks areas was rather well conserved and (b) the decrease of a flavonoid diglucoside-corresponding peak was related to the increase or appearance of flavonoid monoglycoside and/or aglycone-corresponding peak(s), it could be considered that the ratio between the two peaks areas is equivalent to the molar ratio of the corresponding flavonoids. On this basis, the decrease in quercetin-diglucoside leaded to an equal increase in molecules of quercetin-monoglucoside and in molecules of quercetin aglycone.

[2] = test system: mouse lymphoma thymidine kinase gene mutation; experiment: MLA/TK test of quercetin by Meltz and MacGregor (4-h short term protocol), modelled by equation (2); format: cell-based; details: quercetin 0.83-0.86 μg/mL; from data of Meltz and MacGregor
Protocol: To our knowledge, quercetin is the only flavonoid aglycone that was studied in the MLA/TK test, namely in a work by Meltz and MacGregor who used a 4-h short term protocol (Mutat. Res. 1981; 88: 317-324).
The induction ratios that should result from those amounts was deduced from the data of Meltz and MacGregor. Such deduced induction ratios were then compared to the induction ratio actually observed.
The lowest concentration of quercetin tested by Meltz and MacGregor was 10 μg/mL. Therefore, to determine the ratio that should be obtained with the lowest concentration of 0.864 μg/mL or below, the relationship between (a) the concentrations of quercetin tested by Meltz and MacGregor and (b) the corresponding induction ratios they observed was mathematically modelled. Since those ratios started reaching a plateau at the first concentration tested, we choose to use a logarithmic function for such a modelization. Given that the ratio is necessarily of 1 for 0 μg/mL of mutagen (control), the logarithmic function will be of the form: y=a·ln(x+1)+1 (1)
Using the ratios obtained by Meltz and MacGregor for 10, 20 and 30 μg/mL of quercetin allows a mathematical modelization by the following equation with an excellent correlation coefficient (r=0.99): y=3.0822×ln(x+1)+1 (2).

[3] = other in vitro genotoxic tests; cited from earlier work

| share deglycosylated into quercetin (aglycone) [1] | induction ratio interpolated with equation (2) [2] | Structure (SMILES) | genotoxicity rank among flavonoid aglycones [3] |
| --- | --- | --- | --- |
| ~20% |  | O=c1c(O[C@@H]2O[C@H](CO)[C@@H](O)[C@H](O)[C@H]2O)c(-c2ccc(O[C@@H]3O[C@H](CO)[C@@H](O)[C@H](O)[C@H]3O)c(O)c2)oc2cc(O)cc(O)c12 [quercetin-diglucoside, quercetin-3,4′-diglucoside] |  |
|  | 2.9 | O=c1c(O)c(-c2ccc(O)c(O)c2)oc2cc(O)cc(O)c12 [quercetin] | the most genotoxic flavonoid aglycone |
